Values joined by “and” are separate entries in the source; they are usually repeats but may differ in a detail not shown here. Equal entries are not always repeated. Where two headings read alike, the source gives them in different places.
Experiments:
[1] = molecular target: T1, WGR domain of PARP2 (Homo sapiens, UniProt Q9UGN5); test: Tryptophan fluorescence spectroscopy of the WGR domain titrated with divalent cations (one site binding fit); conditions: for Kd: Trp fluorescence, one site binding fit, 10 mM HEPES pH 8.0, 150 mM NaCl, residual EDTA present, read-out: dissociation constant of the divalent cation-WGR domain complex; for effect of ions on intensity of tryptophan fluorescence of the WGR domain: WGR domain 5 µM
T1 construct: WGR domain of PARP2 (residues 77–220) into pET-15b-TEV expression vector; 6xHis (pET-15b-TEV) (N, cleaved yes); made in house; host or cells: Escherichia coli Rosetta2 (DE3) pLysS
Protocol: Fluorescence spectra of Trp residues were measured in the 300–450 nm spectral range at the 270 nm excitation wavelengths using the Cary Eclipse spectrofluorometer (Varian/Agilent, USA).
Fluorescence of WGR domain was measured at 0.5 or 5 µM in a buffer containing 10 mM HEPES (pH 8.0), 150 mM NaCl and 0.73 or 7.3 µM EDTA, respectively. Solutions were complemented with ZnCl2 (0.2–308 µM) or MgCl2 (15–5000 µM), or CaCl2 (8–5000 µM) dissolved in a buffer containing 10 mM HEPES (pH 8.0), 150 mM NaCl. Intensity of the measured spectra was corrected for the concomitant dilution of the WGR domain. Integral intensities (Ifl.) of fluorescence spectra were averaged over three independent measurements (mean ± SEM) and used to plot the corresponding Ifl. vs. ion concentration graphs. Data were fitted with the one site binding equation:2 [drawing 2]
Where C is the concentration of divalent cations, Kd is a dissociation constant of the complex, Im and Ifl0 are maximal and initial values of Ifl., respectively.

[2] = molecular target: T2, PARP2-nucleosome complexes (Mus musculus, UniProt O88554); test: spFRET microscopy in solution of nucleosomes and PARP2-nucleosome complexes; conditions: for effect of ions on the nucleosome structure: NP nucleosomes without PARP2, 5 mM ions; for effect of ions on the structure of nucleosomes in PARP2-nucleosome complexes: Zn2+ 0.3 mM, Ca2+ 5 mM or Mg2+ 5 mM
T2 construct: Recombinant mouse full-length PARP2 was obtained in the baculovirus expression system; made in house; host or cells: PARP2: Sf9 insect cells (baculovirus), gift of Prof; O. Lavrik; nucleosomes assembled in house
Protocol: In the study of nucleosome-PARP2 interactions, nucleosomes (1-2 nM) were incubated with PARP2 (12.5-200 nM) in buffer A (50 mM Tris-HCl pH 7.5; 40 mM NaCl; 0.5 mM β-mercaptoethanol (β-ME); 0.1% NP40) at 25 °C for 30 min. When indicated, buffer A was supplemented with 50 μM - 5 mM ZnCl2, 5 mM CaCl2 or 5 mM MgCl2. […] […] measurements in solution were performed as described previously. Each measured single nucleosome was characterized by FRET between Cy3 and Cy5 labels calculated as a proximity ratio (EPR):1 [drawing 1] Where I3 and I5 are fluorescence intensities of Cy3 and Cy5, respectively, and coefficients 0.19 and 0.81 provide correction for the spectral cross-talk between Cy3 and Cy5 detection channels. EPR is a FRET efficiency not corrected for quantum yields of labels and an instrumentation factor. Relative frequency distributions of nucleosomes by EPR values, i.e. EPR profiles, (2000-5000 nucleosomes per experiment; 3 independent experiments) were plotted and further analyzed as a superposition of several normal (Gaussian) distributions for nucleosomes or nucleosome-PARP2 complexes. Since nucleosomes tend to aggregate when PARP2 is added (especially at high concentrations), treatment of signals measured from nucleosomes and their complexes included mandatory rejection of signals from any aggregates that are clearly recognized due to their slow diffusion rate and/or abnormally high fluorescence intensity.

[3] = molecular target: T1, WGR domain of PARP2; test: Circular dichroism spectroscopy of the WGR domain (BeStSel secondary structure analysis); parameters: content of a-helix in the WGR domain / content of b-sheet in the WGR domain / content of turn in the WGR domain / content of random coil in the WGR domain: unit not given here; conditions: for content of a-helix in the WGR domain / content of b-sheet in the WGR domain / content of random coil in the WGR domain / content of turn in the WGR domain: 5 mM ion, independent measurements
Protocol: (§1) CD spectra of proteins were recorded within the 190-250 nm spectral range with 0.2 nm step using Jasco-810 spectrophotometer (Jasco, Japan) and the quartz […]® cuvette of 0.1 mm thickness (Hellma, Germany. Secondary structure analysis was performed using BeStSel webserver. To improve the reliability of the analysis, the content of canonical secondary structures of various types was predicted for 3-6 independent measurements, and the values were averaged. The statistical significance of the secondary structure difference was determined using the multiple t-test.

[4] = molecular target: T3, PARP2 (Mus musculus, UniProt O88554); test: Circular dichroism spectroscopy of PARP2 (BeStSel secondary structure analysis); parameters: Recombinant mouse full-length PARP2 was obtained in the baculovirus expression system; made in house; host or cells: Sf9 insect cells (baculovirus); gift of Prof; O. Lavrik; conditions: 0.3 mM Zn2+, 0.7 mM Ca2+ or 0.7 mM Mg2+
Protocol: as §1

[5] = molecular target: T3, PARP2; test: Western blot analysis of NAD+-dependent PARylation by PARP2 in PARP2-nucleosome complexes; format: biochemical; parameters: Recombinant mouse full-length PARP2 was obtained in the baculovirus expression system; made in house; host or cells: PARP2: Sf9 insect cells (baculovirus), gift of Prof; O. Lavrik; nucleosomes assembled in house; conditions: for effect of EDTA on PARylation: EDTA 10 mM
Protocol: Probes were subjected to electrophoresis in 4–12% bis-Tris gradient gel in the NuPAGE™ MES SDS Running Buffer at 130 V. […] The membrane was incubated for 60 min in the PBS-T solution supplemented with the 5% skimmed milk. Then the membrane was incubated with mouse monoclonal antibodies 10 H followed by incubation with the secondary anti-mouse antibodies conjugated with horseradish peroxidase (Bio-Rad, Hercules, CA, USA). The washing procedure was carried out after each step of incubation. Immunodetection was performed using the Super Signal West Pico Chemiluminescent Substrate (Thermo Fisher Scientific, Waltham, MA, USA) for 3 min. The Western blot experiments were performed in three independent repetitions.

[6] = test system: PARP2 (Mus musculus); test: EMSA; conditions: no divalent ions; EMSA: 2-3 nM nucleosomes, 5% PAGE in 0.2x TBE, 140 V, 4 C; divalent ions as given per row; binding buffer not in the material
[7] = molecular target: PARP2 (Mus musculus) (UniProt O88554); conditions: cited from earlier work
[8] = molecular target: PARP2 (Mus musculus) (UniProt O88554); conditions: cited from earlier work; remark: listed apart in the source
[9] = molecular target: Nucleosome assembled on a fluorescently labelled 187-bp DNA template (603 positioning sequence) with histones of chicken donor chromatin (chicken); test: native gel or EMSA + other: single particle fluorescence intensity analysis in the gel; nucleosomes NP with PARP2 (50 nM) in buffer A with 0.3 mM Zn2+; native PAGE
[10] = molecular target: T4, NP nucleosomes (Mus musculus, UniProt O88554); test: EMSA of PARP2-nucleosome complexes (non-denaturing PAGE, FRET-in-gel); format: binding, chicken
T4 construct: Recombinant mouse full-length PARP2 was obtained in the baculovirus expression system; made in house; host or cells: PARP2: Sf9 insect cells (baculovirus), gift of Prof; O. Lavrik; nucleosomes assembled in house
Protocol: Sample preparation for EMSA was the same as for spFRET microscopy, although a slightly higher concentration of nucleosomes (2–3 nM) was used. The PARP2-nucleosome complexes were subjected to 5% polyacrylamide gel in 0.2×TBE buffer. Electrophoresis was performed under native conditions at 140 V, + 4 °C for ∼1.5 h. The gels were scanned using Amersham Typhoon RGB imager (Cytiva, Sweden). Fluorescence was excited in the gel at the 532 nm wavelength and recorded in the 570–610 nm (Cy3 signal) and 650–700 nm (FRET signal of Cy5) spectral regions. The resulting images were obtained in green (Cy3 signal) and red (FRET signal of Cy5) colors and merged.

[11] = molecular target: nucleosome; conditions: read-out: Kd of PARP2-nucleosome complex, cited from earlier work
[12] = molecular target: DNA; conditions: read-out: Kd of PARP2 complex with DNA, cited from earlier work

T1 sequence (Q9UGN5 77-220): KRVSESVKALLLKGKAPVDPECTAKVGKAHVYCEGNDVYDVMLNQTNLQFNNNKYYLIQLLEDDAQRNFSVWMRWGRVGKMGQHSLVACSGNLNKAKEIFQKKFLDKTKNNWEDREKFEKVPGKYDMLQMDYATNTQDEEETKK

[Ca+2].[Cl-].[Cl-] [Ca2+, CaCl2]
Kd [1]: 29000 ± 14000 nM | effect of ions on intensity of tryptophan fluorescence of the WGR domain [1]: considerably lower than the effect of Zn^2+ ions | effect of ions on the nucleosome structure [2]: minimally affect | effect of ions on the structure of nucleosomes in PARP2-nucleosome complexes ([2]; PARP2 50 nM): not changed | effect of ions on the structure of the WGR domain (CD) [3]: only minimal changes | content of a-helix in the WGR domain [3]: 14.9 and 10.9 and 11.1 | content of b-sheet in the WGR domain [3]: 30.1 and 29.5 and 31.3 | content of random coil in the WGR domain [3]: 43.7 and 47.2 and 46.3 | content of turn in the WGR domain [3]: 11.4 and 12.5 and 11.3 | effect of ions on the CD spectrum / conformation of PARP2 [4]: similar

O=C(O)CN(CCN(CC(=O)O)CC(=O)O)CC(=O)O [EDTA, ethylenediaminetetraacetic acid]
effect of EDTA on PARP2-nucleosome complexes preformed in the presence of Zn2+ ([2]; EDTA 10 mM, Zn2+ 0.15 mM, PARP2 50 nM): does not reverse the changes in the nucleosome structure | effect of EDTA on PARylation ([5]; Mg2+ 5 mM): fully reverses the effect of Mg^2+ ions | effect of EDTA on PARylation ([5]; Zn2+ 0.3 mM): strongly enhances the efficiency of PARylation | effect of EDTA on PARylation ([5]; absence of divalent ions): does not affect PARylation

[Cl-].[Cl-].[Mg+2] [Mg2+, MgCl2]
Kd [1]: 180000 ± 80000 nM | effect of ions on intensity of tryptophan fluorescence of the WGR domain [1]: considerably lower than the effect of Zn^2+ ions | effect of ions on the nucleosome structure [2]: minimally affect | effect of ions on the structure of nucleosomes in PARP2-nucleosome complexes ([2]; PARP2 50 nM): not changed | effect of ions on the structure of the WGR domain (CD) [3]: only minimal changes | content of a-helix in the WGR domain [3]: 13.8 and 13.1 and 13.6 | content of b-sheet in the WGR domain [3]: 27.8 and 25.8 and 28.5 | content of random coil in the WGR domain [3]: 46 and 48.5 and 46.1 | content of turn in the WGR domain [3]: 12.3 and 12.6 and 11.7 | effect of ions on the CD spectrum / conformation of PARP2 [4]: similar | effect of ions on efficiency of PARP2-mediated PARylation ([5]; Mg2+ 5 mM or Zn2+ 0.3 mM, PARP2 100 nM, nucleosomes 3 nM, NAD+ 0-5 µM): increase

Np nucleosome (s603-42A, 187 bp DNA)
K half [6]: 40 nM

PARP2 (from UniProt O88554)
Kd [7]: 152 nM | Kd [8]: 101 nM

Recombinant mouse full-length PARP2 (poly(ADP-ribose)polymerase 2) (from UniProt O88554 1-559) (enzyme)
stoichiometry N (PARP2 per nucleosome) [9]: 1 and 2

B1: PARP2: Recombinant mouse full-length PARP2 obtained in the baculovirus expression system using Sf9 insect cells (protein)
chain: MAPRRQRSGSGRRVLNEAKKVDNGNKATEDDSPPGKKMRTCQRKGPMAGGKDADRTKDNRDSVKTLLLKGKAPVDPECAAKLGKAHVYCEGDDVYDVMLNQTNLQFNNNKYYLIQLLEDDAQRNFSVWMRWGRVGKTGQHSLVTCSGDLNKAKEIFQKKFLDKTKNNWEDRENFEKVPGKYDMLQMDYAASTQDESKTKEEETLKPESQLDLRVQELLKLICNVQTMEEMMIEMKYDTKRAPLGKLTVAQIKAGYQSLKKIEDCIRAGQHGRALVEACNEFYTRIPHDFGLSIPPVIRTEKELSDKVKLLEALGDIEIALKLVKSERQGLEHPLDQHYRNLHCALRPLDHESNEFKVISQYLQSTHAPTHKDYTMTLLDVFEVEKEGEKEAFREDLPNRMLLWHGSRLSNWVGILSHGLRVAPPEAPITGYMFGKGIYFADMSSKSANYCFASRLKNTGLLLLSEVALGQCNELLEANPKAQGLLRGKHSTKGMGKMAPSPAHFITLNGSTVPLGPASDTGILNPEGYTLNYNEFIVYSPNQVRMRYLLKIQFNFLQLW
PARP2 concentration at which complexes with nucleosomes are formed ([10]; absence of divalent ions): ≥ 12.5 nM | EC50 ([10]; absence of divalent ions, read-out: PARP2 concentration at ~50% decrease in the number of free nucleosomes (50% of nucleosomes in complexes)): 40 ± 10 nM | PARP2 concentration above which aggregation prevents separation of complexes in the gel ([10]; presence of 0.3 mM Zn2+): above 50 nM | Kd ([11]; ref 28): 150 nM | Kd ([11]; ref 59): 76 nM | Kd ([12]; 18 bp duplex oligonucleotides): 11 nM | Kd ([12]; 147 bp DNA having a gap): 58 nM | Kd ([12]; 147 bp intact DNA): 840 nM
